Laboratory results published in publication PMC11890623, “Pseudomonas aeruginosa acyl-CoA dehydrogenases and structure-guided inversion of their substrate specificity” (Nature Communications, 2025).

How the values were obtained:
FadE2 = target: T1, FadE2 (Pseudomonas aeruginosa, UniProt Q9I610); assay: X-ray crystal structure, […] Å; type: binding
T1 construct: gene PA0508; full-length ORF, His6 tag removed by TEV

FadE1 = target: T2, FadE1 (Pseudomonas aeruginosa, UniProt Q9I612); assay: X-ray crystal structure, […] Å; type: binding
T2 construct: gene PA0506; full-length ORF, His6 tag removed by TEV
T2 sequence (Q9I612 entry or part of it): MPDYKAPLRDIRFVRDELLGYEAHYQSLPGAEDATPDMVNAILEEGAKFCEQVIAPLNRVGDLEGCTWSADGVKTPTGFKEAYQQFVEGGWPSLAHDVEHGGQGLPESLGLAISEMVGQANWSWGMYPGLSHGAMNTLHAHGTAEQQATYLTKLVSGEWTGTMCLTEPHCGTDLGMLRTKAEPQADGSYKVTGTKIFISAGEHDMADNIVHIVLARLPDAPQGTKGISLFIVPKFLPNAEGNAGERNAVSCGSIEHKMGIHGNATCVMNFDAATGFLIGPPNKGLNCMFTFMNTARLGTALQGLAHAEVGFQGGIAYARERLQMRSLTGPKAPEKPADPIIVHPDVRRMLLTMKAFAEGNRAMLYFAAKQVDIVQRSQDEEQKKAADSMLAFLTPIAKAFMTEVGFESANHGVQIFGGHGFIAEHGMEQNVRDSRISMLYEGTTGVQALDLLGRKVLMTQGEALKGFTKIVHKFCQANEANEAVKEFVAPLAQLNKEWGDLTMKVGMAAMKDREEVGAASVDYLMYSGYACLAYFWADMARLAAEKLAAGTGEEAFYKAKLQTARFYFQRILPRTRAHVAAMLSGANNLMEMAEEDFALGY

T1 sequence (Q9I610 entry or part of it): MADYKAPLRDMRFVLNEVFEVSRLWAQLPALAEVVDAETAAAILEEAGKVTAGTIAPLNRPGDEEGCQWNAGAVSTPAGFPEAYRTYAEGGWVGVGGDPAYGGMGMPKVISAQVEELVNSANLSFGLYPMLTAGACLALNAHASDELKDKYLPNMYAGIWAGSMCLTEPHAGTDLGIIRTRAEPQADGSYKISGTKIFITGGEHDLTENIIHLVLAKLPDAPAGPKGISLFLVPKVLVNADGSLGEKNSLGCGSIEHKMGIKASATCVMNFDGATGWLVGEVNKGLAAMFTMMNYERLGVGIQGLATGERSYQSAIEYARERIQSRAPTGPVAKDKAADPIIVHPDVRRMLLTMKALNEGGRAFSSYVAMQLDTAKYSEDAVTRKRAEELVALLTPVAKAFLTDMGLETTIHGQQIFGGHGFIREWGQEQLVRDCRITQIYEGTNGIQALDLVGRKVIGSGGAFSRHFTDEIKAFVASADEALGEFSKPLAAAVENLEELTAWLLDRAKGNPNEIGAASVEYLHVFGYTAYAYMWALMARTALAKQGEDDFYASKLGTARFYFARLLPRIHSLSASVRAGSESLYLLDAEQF

Compound: Cc1cc2nc3c(=O)[nH]c(=O)nc-3n(C[C@H](O)[C@H](O)[C@H](O)COP(=O)(O)OP(=O)(O)OC[C@H]3O[C@@H](n4cnc5c(N)ncnc54)[C@H](O)[C@@H]3O)c2cc1C [FAD]
- X-ray crystal structure, 1.94 Å (FadE2): One FAD molecule was bound in each protomer of FadE1 and FadE2.
- X-ray crystal structure, 2.08 Å (FadE1): One FAD molecule was bound in each protomer of FadE1 and FadE2.
